In ChEMBL document CHEMBL1201862, “PubChem BioAssay data set” (2004):
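48-hour exposure; five concentrations; linearly interpolated endpoints. GI50 is the concentration that inhibits growth by half.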 Activity calls are given as the source filed them. Cut-off read from the data, not from the text of the source: active = GI50 up to about 1.1 µM and inactive = higher.

What was measured:
Assay in all cases: DTP human tumour cell line panel, 48 h
[1] = system: SK-MEL-28
[2] = system: MOLT-4
[3] = system: DU-145
[4] = system: TK-10
[5] = system: ACHN
[6] = system: 786-0
[7] = system: OVCAR-3
[8] = system: SR
[9] = system: IGROV-1
[10] = system: OVCAR-5
[11] = system: OVCAR-4
[12] = system: HOP-62
[13] = system: MDA-N
[14] = system: NCI-H226
[15] = system: UACC-257
[16] = system: COLO 205
[17] = system: KM12
[18] = system: HCC 2998
[19] = system: M14
[20] = system: LOX IMVI

Which results are given for `COc1ccc2c(c1)-c1c(c3ccccc3n1CCN1CCCCC1)CC2`?
GI50 [1]: 30.2 µM (inactive); GI50 [2]: 15.9 µM (inactive); GI50 [3]: 53.8 µM (inactive); GI50 [4]: 20.3 µM (inactive); GI50 [5]: 33.7 µM (inactive); GI50 [6]: 16.9 µM (inactive); GI50 [7]: 6.08 µM (inactive); GI50 [8]: 6.64 µM (inactive); GI50 [9]: 13.8 µM (inactive); GI50 [10]: 11.9 µM (inactive); GI50 [11]: 25.6 µM (inactive); GI50 [12]: 8.79 µM (inactive); GI50 [13]: 23.7 µM (inactive); GI50 [14]: 17.2 µM (inactive); GI50 [15]: 22.4 µM (inactive); GI50 [16]: 13.2 µM (inactive); GI50 [17]: 6.07 µM (inactive); GI50 [18]: 6.87 µM (inactive); GI50 [19]: 5.47 µM (inactive); GI50 [20]: 16.3 µM (inactive)

Which GI50 [1] does the source give for `N#Cc1cc2c(n(C3OC(CO)C(O)C(O)C3O)c1=S)CCCCCC2` (stereo not given) here?
Its GI50 is > 100 µM (inactive).

What about the GI50 [2] of the same compound?
The GI50 was > 100 µM (inactive).

What about the GI50 [3] of the same compound?
Its GI50 is > 100 µM (inactive).

And the GI50 [4]?
Its GI50 is > 100 µM (inactive).

And the GI50 [5]?
Its GI50 is > 100 µM (inactive).

What about the GI50 [6] of the same compound?
The GI50 was > 100 µM (inactive).

What about the GI50 [7] of the same compound?
Its GI50 is > 100 µM (inactive).

And the GI50 [8]?
Its GI50 is > 100 µM (inactive).

And the GI50 [9]?
Its GI50 is > 100 µM (inactive).

And the GI50 [10]?
Its GI50 is > 100 µM (inactive).

What about the GI50 [11] of the same compound?
The GI50 was > 100 µM (inactive).

And the GI50 [12]?
Its GI50 is > 100 µM (inactive).

What about the GI50 [13] of the same compound?
Its GI50 is > 100 µM (inactive).

What about the GI50 [14] of the same compound?
The GI50 was > 100 µM (inactive).

What about the GI50 [15] of the same compound?
Its GI50 is > 100 µM (inactive).

What about the GI50 [16] of the same compound?
The GI50 was > 100 µM (inactive).

What about the GI50 [17] of the same compound?
The GI50 was > 100 µM (inactive).

What about the GI50 [18] of the same compound?
Its GI50 is > 100 µM (inactive).

What about the GI50 [19] of the same compound?
The GI50 was > 100 µM (inactive).

What about the GI50 [20] of the same compound?
Its GI50 is > 100 µM (inactive).

`CCCCCCCC/C=C\CCCCCCCCNc1ccn(C2OC(COP(=O)(O)OC3CC(n4cc(F)c(=O)[nH]c4=O)OC3CO)C(O)C2O)c(=O)n1` (stereo not given) was tested. Which GI50 [1] did it give?
Its GI50 is 32.1 µM (inactive).

And the GI50 [2]?
Its GI50 is 0.471 µM (active).

And the GI50 [3]?
The GI50 was 0.159 µM (active).

And the GI50 [4]?
The GI50 was > 100 µM (inactive).

What about the GI50 [5] of the same compound?
Its GI50 is 0.0177 µM (active).

And the GI50 [6]?
The GI50 was 0.195 µM (active).

What about the GI50 [7] of the same compound?
The GI50 was > 87.5 µM (inactive).

And the GI50 [8]?
Its GI50 is 0.0159 µM (active).

What about the GI50 [9] of the same compound?
The GI50 was > 26.7 µM (inactive).

And the GI50 [10]?
Its GI50 is > 100 µM (inactive).

What about the GI50 [11] of the same compound?
Its GI50 is > 91.8 µM (inactive).

And the GI50 [12]?
The GI50 was < 0.0255 µM (active).

And the GI50 [13]?
Its GI50 is > 55.1 µM (inactive).

And the GI50 [14]?
Its GI50 is > 28.4 µM (inactive).

What about the GI50 [15] of the same compound?
The GI50 was > 37.7 µM (inactive).

What about the GI50 [16] of the same compound?
Its GI50 is > 47.3 µM (inactive).

What about the GI50 [17] of the same compound?
The GI50 was 45 µM (inactive).

And the GI50 [18]?
Its GI50 is > 100 µM (inactive).

And the GI50 [19]?
The GI50 was 0.315 µM (active).

And the GI50 [20]?
The GI50 was 0.122 µM (active).

`COc1ccc(N2C(=O)C3c4[nH]c5ccc(OCc6ccccc6)cc5c4C4CCC(C(C)(C)C)CC4C3C2=O)cc1` (stereo not given) was tested. Which GI50 [1] did it give?
The GI50 was 65.6 µM (inactive).

And the GI50 [2]?
The GI50 was > 100 µM (inactive).

And the GI50 [3]?
Its GI50 is > 100 µM (inactive).

And the GI50 [4]?
Its GI50 is 54.5 µM (inactive).

What about the GI50 [5] of the same compound?
Its GI50 is > 100 µM (inactive).

What about the GI50 [6] of the same compound?
The GI50 was 27.9 µM (inactive).

What about the GI50 [7] of the same compound?
Its GI50 is 57.5 µM (inactive).

And the GI50 [8]?
The GI50 was > 100 µM (inactive).

And the GI50 [9]?
Its GI50 is > 100 µM (inactive).

And the GI50 [10]?
The GI50 was > 100 µM (inactive).

What about the GI50 [11] of the same compound?
Its GI50 is 29.8 µM (inactive).

And the GI50 [12]?
Its GI50 is > 100 µM (inactive).

And the GI50 [13]?
Its GI50 is > 100 µM (inactive).

And the GI50 [14]?
Its GI50 is > 100 µM (inactive).

What about the GI50 [15] of the same compound?
Its GI50 is > 100 µM (inactive).

What about the GI50 [16] of the same compound?
The GI50 was > 100 µM (inactive).

And the GI50 [17]?
Its GI50 is > 100 µM (inactive).

And the GI50 [18]?
The GI50 was > 100 µM (inactive).

And the GI50 [19]?
Its GI50 is 78.7 µM (inactive).

What about the GI50 [20] of the same compound?
The GI50 was > 100 µM (inactive).

What does the source list for `COC1(c2cccs2)c2ccccc2C(OC)(c2cccs2)c2ccccc21` (stereo not given)?
GI50 [1]: > 100 µM (inactive); GI50 [2]: 16.7 µM (inactive); GI50 [3]: 71 µM (inactive); GI50 [4]: 36.8 µM (inactive); GI50 [5]: > 100 µM (inactive); GI50 [6]: 35.3 µM (inactive); GI50 [7]: > 100 µM (inactive); GI50 [8]: 40.7 µM (inactive); GI50 [9]: > 100 µM (inactive); GI50 [10]: 44.4 µM (inactive); GI50 [11]: 33.7 µM (inactive); GI50 [12]: 42.3 µM (inactive); GI50 [13]: > 100 µM (inactive); GI50 [14]: > 100 µM (inactive); GI50 [15]: > 100 µM (inactive); GI50 [16]: 85.5 µM (inactive); GI50 [17]: > 100 µM (inactive); GI50 [18]: 49.3 µM (inactive); GI50 [19]: 81.1 µM (inactive); GI50 [20]: > 100 µM (inactive)
